From patent publication US12630643B2, “CD40 binding protein, bispecific conjugate thereof and method of treating cancer” (priority 2020, dated 2026)

How the values were obtained:
14GIIICII scFv = format: binding, mouse
IBIIICI scFv = format: binding, mouse
Human CD40-avi = Human CD40-avi (Homo sapiens, UniProt P25942); assay: SPR kinetic measurements (single cycle kinetics) on captured IgG2, hCD40-avi; conditions: 1:1 Langmuir binding model
Cynomolgus CD40-Fc = assay: SPR kinetic measurements (single cycle kinetics) on captured IgG2, cCD40-Fc; conditions: for ka / kd: Cynomolgus CD40-Fc (dimer, avidity effects may contribute)
canine (dog) CD40 = molecular target: T1, canine (dog) CD40 (Canis lupus familiaris, UniProt Q7YRL5); conditions: stated in US2006-0093600; cited from earlier work
T1 sequence (Q7YRL5 21-274): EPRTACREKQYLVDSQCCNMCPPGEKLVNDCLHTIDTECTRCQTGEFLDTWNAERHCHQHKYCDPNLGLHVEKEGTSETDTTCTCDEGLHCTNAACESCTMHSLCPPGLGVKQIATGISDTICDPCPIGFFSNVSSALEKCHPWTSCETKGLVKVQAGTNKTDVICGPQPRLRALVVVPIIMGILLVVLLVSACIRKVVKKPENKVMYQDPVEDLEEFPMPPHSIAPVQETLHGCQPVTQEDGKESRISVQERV

Human CD40-Fc [1] = molecular target: T2, Human CD40-Fc (Homo sapiens, UniProt P25942); assay: SPR kinetic measurements (single cycle kinetics) on captured IgG2, hCD40-Fc; conditions: for ka / kd: Human CD40-Fc (dimer, avidity effects may contribute)
Target sequence in this assay (P25942 21-193): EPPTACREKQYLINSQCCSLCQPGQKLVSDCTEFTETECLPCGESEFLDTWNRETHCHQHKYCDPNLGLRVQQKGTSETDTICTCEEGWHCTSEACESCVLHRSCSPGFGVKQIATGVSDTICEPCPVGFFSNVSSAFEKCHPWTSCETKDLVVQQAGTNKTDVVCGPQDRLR

CD40 on CD19+ cells = CD40 on CD19+ cells (Homo sapiens, UniProt P25942); assay: Competitive binding with anti-CD40-FITC antibody 5C3, flow cytometry; conditions: 25 nM-50 nM antibody, 30 min on ice
Human CD40-Fc [2] = molecular target: T2, Human CD40-Fc; assay: SPR single cycle kinetics of Example 5, human CD40-Fc; parameters: purchased Sino Biological 10774-H38H; conditions: 1:1 Binding
Target sequence in this assay (P25942 21-193 limits assumed): as the sequence (P25942 21-193) above

Canine CD40-Fc = molecular target: T3, Canine CD40-Fc (Canis lupus familiaris, UniProt Q7YRL5); assay: SPR single cycle kinetics of Example 5, canine CD40-Fc; format: binding
T3 construct: purchased Sino Biological 70105-D02H
T3 sequence (Q7YRL5 21-193 limits assumed): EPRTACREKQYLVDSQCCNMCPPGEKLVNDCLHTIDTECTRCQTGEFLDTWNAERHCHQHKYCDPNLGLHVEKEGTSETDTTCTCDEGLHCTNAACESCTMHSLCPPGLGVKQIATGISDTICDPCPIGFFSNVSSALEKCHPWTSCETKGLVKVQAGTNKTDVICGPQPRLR

[3] = molecular target: CD40 ligand interaction with CD40 (Homo sapiens, UniProt P25942); conditions: Yu et al. 2018; WO 2015/091853; cited from earlier work
[4] = system: human monocyte-derived dendritic cells; assay: Internalisation of antibody into dendritic cells; conditions: 125 nM antibody
[5] = system: human monocyte-derived DC (MoDC); assay: MoDC activation, flow cytometry of surface activation markers (t-SNE); conditions: 125 nM antibody, 48 hours of stimulation

Sequence of Human CD40-avi (P25942 21-193): as the sequence (P25942 21-193) above
Sequence of CD40 ligand interaction with CD40 (P25942 21-277): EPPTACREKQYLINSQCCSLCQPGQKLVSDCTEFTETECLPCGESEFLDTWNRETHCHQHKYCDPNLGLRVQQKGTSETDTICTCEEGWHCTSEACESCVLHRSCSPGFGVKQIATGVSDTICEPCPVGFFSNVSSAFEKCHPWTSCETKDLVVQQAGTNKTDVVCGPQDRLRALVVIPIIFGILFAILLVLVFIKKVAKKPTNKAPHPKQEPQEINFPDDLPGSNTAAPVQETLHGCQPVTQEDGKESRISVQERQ
Sequence of CD40 on CD19+ cells (P25942 21-277): as above

Molecule: FIGITELKKLES [UU74]
- Kd (14GIIICII scFv): 1.7 nM
- ka (14GIIICII scFv): 570000 M⁻¹ s⁻¹
- kd (14GIIICII scFv): 0.00095 s⁻¹
- Kd (IBIIICI scFv): 0.12 nM
- ka (IBIIICI scFv): 280000 M⁻¹ s⁻¹
- kd (IBIIICI scFv): 3.3e-05 s⁻¹

Molecule: FIGITELKKLESK [UU73]
- Kd (14GIIICII scFv): 0.87 nM
- ka (14GIIICII scFv): 510000 M⁻¹ s⁻¹
- kd (14GIIICII scFv): 0.00044 s⁻¹
- Kd (IBIIICI scFv): 0.34 nM
- ka (IBIIICI scFv): 200000 M⁻¹ s⁻¹
- kd (IBIIICI scFv): 6.7e-05 s⁻¹

Molecule: FIGITELKKLESKIN [UU71]
- Kd (14GIIICII scFv): 0.6 nM
- ka (14GIIICII scFv): 540000 M⁻¹ s⁻¹
- kd (14GIIICII scFv): 0.00032 s⁻¹
- ka (IBIIICI scFv): 230000 M⁻¹ s⁻¹
- kd (1/s) (IBIIICI scFv): * (key: *: too low for, or very close to the detection limit of, instrument specification (<10^−5))

Molecule: FIGITELKKLESKI [UU72]
- Kd (14GIIICII scFv): 0.6 nM
- ka (14GIIICII scFv): 570000 M⁻¹ s⁻¹
- kd (14GIIICII scFv): 0.00034 s⁻¹
- ka (IBIIICI scFv): 250000 M⁻¹ s⁻¹
- kd (1/s) (IBIIICI scFv): * (key: *: too low for, or very close to the detection limit of, instrument specification (<10^−5))

Molecule: X-SM083-ab-5: agonistic anti-CD40 antibody CP-870,893 (US 2017/0342159) as hIgG2
- Kd (Human CD40-avi): 18 nM
- ka (Human CD40-avi): 62000 M⁻¹ s⁻¹
- kd (Human CD40-avi): 0.0011 s⁻¹
- ka (Cynomolgus CD40-Fc): 91000 M⁻¹ s⁻¹
- kd (Cynomolgus CD40-Fc): 2.5e-05 s⁻¹
- binding to canine (dog) CD40 (canine (dog) CD40): does not bind to canine (dog) CD40
- ka (Human CD40-Fc [1]): 66000 M⁻¹ s⁻¹
- kd (Human CD40-Fc [1]): 3.2e-05 s⁻¹
- 5C3-FITC staining after pre-incubation with antibody (CD40 on CD19+ cells): loss of the FITC signal
- kd (Human CD40-Fc [2]): 3.6e-05 s⁻¹
- Kd (Human CD40-Fc [2]; read-out: ^appKD): 0.2 nM
- Ka (Human CD40-Fc [2]; optimised follow-up experiment): 190000 M⁻¹ s⁻¹
- Ka (Canine CD40-Fc; Canine CD40-Fc, 1:1 Binding): 170000 M⁻¹ s⁻¹
- kd (Canine CD40-Fc; Canine CD40-Fc, 1:1 Binding): 0.00041 s⁻¹
- affinity for canine CD40 lower than for the human orthologue (Canine CD40-Fc; canine vs human CD40-Fc): approximately 10 times
- binding to canine CD40 (Canine CD40-Fc; in words): exhibited binding to canine CD40
- competition with / blocking of CD40 ligand [3]: without blocking CD40 ligand interaction

Molecule: FIGITELKKLESKINKVF (SEQ ID NO: 25), C-term K-biotin; full length MTTE [UU24]
- Kd (14GIIICII scFv): 0.3 nM
- ka (14GIIICII scFv): 660000 M⁻¹ s⁻¹
- kd (14GIIICII scFv): 0.0002 s⁻¹
- Kd (IBIIICI scFv): 0.12 nM
- ka (IBIIICI scFv): 190000 M⁻¹ s⁻¹
- kd (IBIIICI scFv): 2.3e-05 s⁻¹

Molecule: FIGITELKKLESKINK [UU70]
- Kd (14GIIICII scFv): 0.29 nM
- ka (14GIIICII scFv): 650000 M⁻¹ s⁻¹
- kd (14GIIICII scFv): 0.00019 s⁻¹
- Kd (IBIIICI scFv): 0.16 nM
- ka (IBIIICI scFv): 230000 M⁻¹ s⁻¹
- kd (IBIIICI scFv): 3.7e-05 s⁻¹

B1: X-SM083-ab-2: agonistic anti-CD40 antibody 1150/1151 (WO 2015/091853) as hIgG2 (antibody)
heavy: EVQLLESGGGLVQPGGSLRLSCAASGFTFSSYAMSWVRQAPGKGLEWVSGIGGSSSYTSYADSVKGRFTISRDNSKNTLYLQMNSLRAEDTAVYYCARYYSYHMDYWGQGTLVTVSSASTKGPSVFPLAPCSRSTSESTAALGCLVKDYFPEPVTVSWNSGALTSGVHTFPAVLQSSGLYSLSSVVTVPSSNFGTQTYTCNVDHKPSNTKVDKTVERKCCVECPPCPAPPVAGPSVFLFPPKPKDTLMISRTPEVTCVVVDVSHEDPEVQFNWYVDGVEVHNAKTKPREEQFNSTFRVVSVLTVVHQDWLNGKEYKCKVSNKGLPAPIEKTISKTKGQPREPQVYTLPPSREEMTKNQVSLTCLVKGFYPSDISVEWESNGQPENNYKTTPPMLDSDGSFFLYSKLTVDKSRWQQGNVFSCSVMHEALHNHYTQKSLSLSPGK
light: DIQMTQSPSSLSASVGDHVTITCRASQSISSYLNWYQQKPGKAPKLLIYAASSLQSGVPSRFSGSGSGTDFTLTISSLQPEDFATYYCQQYGSAPPTFGQGTKLEIK
modifications: left off: a dimerising Fc or GST
notes: agonistic anti-CD40 antibody 1150/1151 (WO 2015/091853) as hIgG2
- internalisation ([4]; after 60 min at 37° C.): 50%
- antibodies remained extracellular ([4]; after 4 h incubation): Approximately 30%
- Kd (Human CD40-avi): 180 nM
- ka (Human CD40-avi): 750000 M⁻¹ s⁻¹
- kd (Human CD40-avi): 0.14 s⁻¹
- ka (Cynomolgus CD40-Fc): 490000 M⁻¹ s⁻¹
- kd (Cynomolgus CD40-Fc): 0.0018 s⁻¹
- Kd (Cynomolgus CD40-Fc; read-out: ^appKD, Cynomolgus CD40-Fc, apparent affinity, 1:1 Langmuir model): 3.8 nM
- agonistic profile, t-SNE cluster of surface expression of CD14, CD1a, CD40, HLA-DR, CD86 and CD83 [5]: potent agonistic profile
- ka (Human CD40-Fc [1]): 320000 M⁻¹ s⁻¹
- kd (Human CD40-Fc [1]): 0.0014 s⁻¹
- Kd (Human CD40-Fc [1]; read-out: ^appKD, Human CD40-Fc, apparent affinity, 1:1 Langmuir model): 4.6 nM
- competition with / blocking of CD40 ligand [3]: No competition between this antibody and CD40 ligand was observed
